Values joined by “and” are separate entries in the source; they are usually repeats but may differ in a detail not shown here. Equal entries are not always repeated. Structures can show the parent of a compound that is named as a salt.
Target: T1, Activated human C1s (Homo sapiens, UniProt P09871)
T1 construct: purchased Calbiochem (La Jolla, Calif.)
T1 sequence (P09871 438-688 limits assumed): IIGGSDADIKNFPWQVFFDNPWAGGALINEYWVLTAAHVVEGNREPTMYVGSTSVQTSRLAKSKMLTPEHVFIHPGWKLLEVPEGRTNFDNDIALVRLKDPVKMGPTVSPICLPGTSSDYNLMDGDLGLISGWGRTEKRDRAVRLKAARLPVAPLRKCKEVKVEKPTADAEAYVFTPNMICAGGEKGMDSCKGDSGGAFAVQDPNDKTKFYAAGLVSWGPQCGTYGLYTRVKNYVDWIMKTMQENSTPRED
T1 sequence (P09871 16-437 partner limits assumed): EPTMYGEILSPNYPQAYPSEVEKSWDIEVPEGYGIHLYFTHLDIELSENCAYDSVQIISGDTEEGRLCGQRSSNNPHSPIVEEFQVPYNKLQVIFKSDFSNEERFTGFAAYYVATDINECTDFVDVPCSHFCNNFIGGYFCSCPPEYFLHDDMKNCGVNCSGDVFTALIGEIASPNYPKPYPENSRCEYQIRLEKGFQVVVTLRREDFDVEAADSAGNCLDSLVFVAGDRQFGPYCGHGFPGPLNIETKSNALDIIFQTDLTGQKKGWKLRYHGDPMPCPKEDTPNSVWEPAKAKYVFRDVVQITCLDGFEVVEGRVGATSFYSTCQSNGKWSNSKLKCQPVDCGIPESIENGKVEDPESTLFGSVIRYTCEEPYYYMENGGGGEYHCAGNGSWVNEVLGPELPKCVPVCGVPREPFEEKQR
Experiment: In vitro inhibition of C1s (Ki determination, C1s-catalyzed hydrolysis of Z-Gly-Arg-S-Bzl, DTNB readout)
Type: biochemical
Conditions: substrate Z-Gly-Arg-S-Bzl 45 μM, DTNB 200 μM, C1s 2.3 nM, pH 7.5, 37° C., absorbance at 405 nm
Description: Reagents: All buffer salts were obtained from Sigma Chemical Company (St. Louis, Mo.), and were of the highest purity available. DTNB was purchased from Pierce (Rockford, Ill.). Z-Gly-Arg-S-Bzl was purchased from Enzyme Systems Products (Livermore, Calif.). Activated human C1s was purchased from Calbiochem (La Jolla, Calif.).
Test compounds are prepared as a 10 μM solution in DMSO. Dilutions are prepared in DMSO yielding 7 final concentrations encompassing a 700-fold concentration range.
Reactions were initiated by the addition of a 10 μL aliquot of the enzyme, and the absorbance increase at 405 nm is continuously recorded for 15 minutes in a Molecular Devices plate reader. Final DMSO concentration was 4.3%. […] The ratio of the velocity (rate of change in absorbance as a function of time) for a sample containing no test compound is divided by the velocity of a sample containing test compound, and is plotted as a function of test compound concentration. The data are fit to a linear regression, and the value of the slope of the line calculated. The inverse of the slope is the experimentally determined Ki value.

Row | SMILES | Ki
1 | C=Cc1ccc(-c2cccc(S(=O)(=O)c3cc(C(=N)N)sc3SC)c2)cc1 [Example 94, 5-methylsulfanyl-4-(4′-vinyl-biphenyl-3-sulfonyl)-thiophene-2-carboxamidine] | 6 to 23 nM
2 | COc1cc(C)c(-c2cccc(S(=O)(=O)c3cc(C(=N)N)sc3SC)c2)c(NC(=O)CCS(C)(=O)=O)c1 [Example 256, N-[3′-(5-Carbamimidoyl-2-methylsulfanyl-thiophene-3-sulfonyl)-4-methoxy-6-methyl-biphenyl-2-yl]-3-methanesulfonyl-propionamide trifluoroacetate] | 6 to 23 nM
3 | CSc1sc(C(=N)N)cc1S(=O)(=O)c1cccc(-c2c(C)cccc2NC(=O)NCCc2c[nH]c3ccccc23)c1 [Example 207, 4-(2′-{3-[2-(1H-Indol-3-yl)-ethyl]-ureido}-6′-methyl-biphenyl-3-sulfonyl)-5-methylsulfanyl-thiophene-2-carboxamidine trifluoroacetate] | 6 to 23 nM
4 | CCOC(=O)c1cccc(-c2cccc(S(=O)(=O)c3cc(C(=N)N)sc3SC)c2)c1 [Example 102, 3′-(5-carbamimidoyl-2-methylsulfanyl-thiophene-3-sulfonyl)-biphenyl-3-carboxylic acid ethyl ester] | 6 to 23 nM
5 | COc1cc(-c2ccccc2Cl)cc(S(=O)(=O)c2cc(C(=N)N)sc2SC)c1 [Example 19, 4-(2′-Chloro-5-methoxy-biphenyl-3-sulfonyl)-5-methylsulfanyl-thiophene-2-carboxamidine trifluoroacetate] | 6 to 23 nM
6 | CSc1sc(C(=N)N)cc1S(=O)(=O)c1cccc(-c2c(C)cccc2NC(=O)NCCNS(C)(=O)=O)c1 [Example 195, 4-{2′-[3-(2-Methanesulfonylamino-ethyl)-ureido]-6′-methyl-biphenyl-3-sulfonyl}-5-methylsulfanyl-thiophene-2-carboxamidine trifluoroacetate] | 6 to 23 nM
7 | CO/N=C(\N)Nc1ccc(-c2cccc(S(=O)(=O)c3cc(C(=N)N)sc3SC)c2)c(C)c1 [Example 315, 4-[2′-Methyl-4′-(N′-methoxyl-guanidino)-biphenyl-3-sulfonyl]-5-methylsulfanyl-thiophene-2-carboxamidine bis-trifluoroacetate] | 6 to 23 nM
8 | CSc1sc(C(=N)N)cc1S(=O)(=O)c1cccc(-c2c(C)cccc2NC(=O)NCCCCCC(=O)O)c1 [Example 240, 6-{3-[3′-(5-Carbamimidoyl-2-methylsulfanyl-thiophene-3-sulfonyl)-6-methyl-biphenyl-2-yl]-ureido}-hexanoic acid trifluoroacetate] | 6 to 23 nM
9 | CSc1sc(C(=N)N)cc1S(=O)(=O)c1cccc(-c2ccc(O)cc2)c1 [Example 79, 4-(4′-Hydroxy-biphenyl-3-sulfonyl)-5-methylsulfanyl-thiophene-2-carboxamidine] | 6 to 23 nM
10 | CSc1sc(C(=N)N)cc1S(=O)(=O)c1cccc(-c2ccccc2C(C)O)c1 (stereo not shown) [Example 32, 4-[2′-(1-Hydroxy-ethyl)-biphenyl-3-sulfonyl]-5-methylsulfanyl-thiophene-2-carboxamidine trifluoroacetate] | 6 to 23 nM
11 | COc1cc(C)c(-c2cccc(S(=O)(=O)c3cc(C(=N)N)sc3SC)c2)c(NC(=O)CSCCC(=O)O)c1 [Example 252, 3-{[3′-(5-Carbamimidoyl-2-methylsulfanyl-thiophene-3-sulfonyl)-4-methoxy-6-methyl-biphenyl-2-ylcarbamoyl]-methylsulfanyl}-propionic acid trifluoroacetate] | 6 to 23 nM
12 | CSc1sc(C(=N)N)cc1S(=O)(=O)c1cccc(-c2c(C)cccc2NC(=O)CS(C)(=O)=O)c1 [Example 257, N-[3′-(5-Carbamimidoyl-2-methylsulfanyl-thiophene-3-sulfonyl)-6-methyl-biphenyl-2-yl]-2-methanesulfonyl-acetamide trifluoroacetate] | 6 to 23 nM
13 | CSc1sc(C(=N)N)cc1S(=O)(=O)c1ccc(C)c(-c2ccccc2)c1 [Example 115, 4-(6-Methyl-biphenyl-3-sulfonyl)-5-methylsulfanyl-thiophene-2-carboxamidine trifluoroacetate] | 6 to 23 nM
14 | CSc1sc(C(=N)N)cc1S(=O)(=O)c1cccc(-c2cccc(C(=O)OC(C)C)c2C)c1 [Example 3, 3′-(5-Carbamimidoyl-2-methylsulfanyl-thiophene-3-sulfonyl)-2-methyl-biphenyl-3-carboxylic acid isopropyl ester trifluoroacetate] | 6 to 23 nM
15 | C=CCOc1cc(Br)cc(S(=O)(=O)c2cc(C(=N)N)sc2SC)c1 [Example 12, 4-(3-Allyloxy-5-bromo-benzenesulfonyl)-5-methylsulfanyl-thiophene-2-carboxamidine hydrochloride] | 6 to 23 nM
16 | CSc1sc(C(=N)N)cc1S(=O)(=O)c1cccc(-c2c(C)cccc2CO)c1 [Example 5, 4-(6′-Hydroxymethyl-2′-methyl-biphenyl-3-sulfonyl)-5-methylsulfanyl-thiophene-2-carboxamidine] | 6 to 23 nM
17 | CSc1sc(C(=N)N)cc1S(=O)(=O)c1cccc(-c2ncccc2C)c1 [Example 11, 4-[3-(3-Methyl-pyridin-2-yl)-benzenesulfonyl]-5-methylsulfanyl-thiophene-2-carboxamidine bis-trifluoroacetate] | 6 to 23 nM and 23 nM
18 | CSc1sc(C(=N)N)cc1S(=O)(=O)c1cccc(-c2ccc(NC(=N)NCCCCCC(=O)O)cc2C)c1 [Example 263, 6-{N′-[3′-(5-Carbamimidoyl-2-methylsulfanyl-thiophene-3-sulfonyl)-2-methyl-biphenyl-4-yl]-guanidino}-hexanoic acid] | 6 to 23 nM
19 | CSc1sc(C(=N)N)cc1S(=O)(=O)c1cccc(-c2ccc(NC(=N)NCCCCCS(C)(=O)=O)cc2C)c1 [Example 173, 4-{4′-[N′-(5-Methanesulfonyl-pentyl)-guanidino]-2′-methyl-biphenyl-3-sulfonyl}-5-methylsulfanyl-thiophene-2-carboxamidine trifluoroacetate] | 6 to 23 nM
20 | CSc1sc(C(=N)N)cc1S(=O)(=O)c1cccc(-c2ccc(Cl)s2)c1 [Example 92, 4-[3-(5-Chloro-thiophen-2-yl)-benzenesulfonyl]-5-methylsulfanyl-thiophene-2-carboxamidine] | 6 to 23 nM
21 | CSc1sc(C(=N)N)cc1S(=O)(=O)c1cccc(-c2cnc3ccccc3c2)c1 [Example 73, 5-Methylsulfanyl-4-(3-quinolin-3-yl-benzenesulfonyl)-thiophene-2-carboxamidine] | 6 to 23 nM
22 | CSc1sc(C(=N)N)cc1S(=O)(=O)c1cccc(-c2ccc(NC(=N)NCCCS(C)(=O)=O)cc2C)c1 [Example 171, 4-{4′-[N′-(3-Methanesulfonyl-propyl)-guanidino]-2′-methyl-biphenyl-3-sulfonyl}-5-methylsulfanyl-thiophene-2-carboxamidine trifluoroacetate] | 6 to 23 nM
23 | CSc1sc(C(=N)N)cc1S(=O)(=O)c1ccc2ccccc2c1 [Example 37, 5-Methylsulfanyl-4-(naphthalene-2-sulfonyl)-thiophene-2-carboxamidine triflouroacetate] | 6 to 23 nM
24 | CSc1sc(C(=N)N)cc1S(=O)(=O)c1cccc(-c2c(C)cc(NC(=N)N)cc2[N+](=O)[O-])c1 [Example 236, 4-(4′-Guanidino-2′-methyl-6′-nitro-biphenyl-3-sulfonyl)-5-methylsulfanyl-thiophene-2-carboxamidine bis-trifluoroacetate] | 6 to 23 nM
25 | CSc1sc(C(=N)N)cc1S(=O)(=O)c1cccc(-c2c(C)cc(O)cc2C)c1 [Example 224, 4-(4′-Hydroxy-2′,6′-dimethyl-biphenyl-3-sulfonyl)-5-methylsulfanyl-thiophene-2-carboxamidine trifluoroacetate] | 6 to 23 nM
26 | COc1cc(-c2ccccc2)cc(S(=O)(=O)c2cc(C(=N)N)sc2SC)c1 [Example 15, 4-(5-Methoxy-biphenyl-3-sulfonyl)-5-methylsulfanyl-thiophene-2-carboxamidine hydrochloride] | 6 to 23 nM
27 | CSc1sc(C(=N)N)cc1S(=O)(=O)c1cccc(-c2c(C)cc(NC(=N)N)cc2NC(=O)CCCS(C)(=O)=O)c1 [Example 260, N-[3′-(5-Carbamimidoyl-2-methylsulfanyl-thiophene-3-sulfonyl)-4-guanidino-6-methyl-biphenyl-2-yl]-4-methanesulfonyl-butyramide bis-trifluoroacetate] | 6 to 23 nM
28 | CSc1sc(C(=N)N)cc1S(=O)(=O)c1cnc(N)c(-c2ccccc2C)c1 [Example 121, 4-(6-Amino-5-o-tolyl-pyridine-3-sulfonyl)-5-methylsulfanyl-thiophene-2-carboxamidine] | 6 to 23 nM

From US7109354B2, “Thiophene amidines, compositions thereof, and methods of treating complement-mediated diseases and conditions” (3-Dimensional Pharmaceuticals, Inc., priority 2002, dated 2006)
